# Test results as given in patent EP4796557A1, “POLYPEPTIDE, BIOACTIVE CONJUGATE, AND PREPARATION METHOD THEREFOR AND USE THEREOF” (priority 2023, dated 2025).
# Numbered stars: 1 amine (or outer) side, 2 acyl side, 3 side chain; on linkers, the order of the positions; unused ones are H or OH. Square brackets hold non-standard residues; d marks the D form. Peptide text beside a SMILES is read from it. * marks the point of attachment. Exatecan = CC[C@@]1(O)C(=O)OCc2c1cc1n(c2=O)Cc2c-1nc1cc(F)c(C)c3c1c2[C@@H](N*)CC3; Hexanoyl(6-maleimido) = O=C1C=CC(=O)N1CCCCCC(=O)*; PABC = O=C(OCc1ccc(N[*:1])cc1)[*:2]; Cit = NC(=O)NCCC[C@H](N)C(=O)O
# Legend:
# [1] = background statement; cited from earlier work
# MMP9 [2] = target: T1, MMP9 (Homo sapiens, UniProt P14780); assay: Enzymolysis assay of the linker-payload by MMP9 (LC-MS); format: biochemical; details: linker-payload 100 µmol, activated MMP9 0.2 µg/mL, 37°C, 24 h
# Procedure: (§1) MMP9 having a final concentration of 200 µg/mL was mixed with 4 mM APMA at a ratio of 1:1 and placed in a 37°C water bath and incubated for 24 h to activate the MMP9 enzyme solution. Subsequently, the linker-payload having a final concentration of 100 µmol was incubated with the activated MMP9 solution having a final concentration of 0.2 µg/mL in a 37°C water bath for 24 h. After the reaction was complete, LC-MS analysis was performed.
# MMP2 [3] = target: T2, MMP2 (Homo sapiens, UniProt P08253); assay: Enzymolysis assay of the linker-payload by MMP2 (LC-MS); format: biochemical; details: linker-payload 100 µmol, activated MMP2 1 µg/mL, 37°C, 24 h
# T2 sequence (P08253 110-660): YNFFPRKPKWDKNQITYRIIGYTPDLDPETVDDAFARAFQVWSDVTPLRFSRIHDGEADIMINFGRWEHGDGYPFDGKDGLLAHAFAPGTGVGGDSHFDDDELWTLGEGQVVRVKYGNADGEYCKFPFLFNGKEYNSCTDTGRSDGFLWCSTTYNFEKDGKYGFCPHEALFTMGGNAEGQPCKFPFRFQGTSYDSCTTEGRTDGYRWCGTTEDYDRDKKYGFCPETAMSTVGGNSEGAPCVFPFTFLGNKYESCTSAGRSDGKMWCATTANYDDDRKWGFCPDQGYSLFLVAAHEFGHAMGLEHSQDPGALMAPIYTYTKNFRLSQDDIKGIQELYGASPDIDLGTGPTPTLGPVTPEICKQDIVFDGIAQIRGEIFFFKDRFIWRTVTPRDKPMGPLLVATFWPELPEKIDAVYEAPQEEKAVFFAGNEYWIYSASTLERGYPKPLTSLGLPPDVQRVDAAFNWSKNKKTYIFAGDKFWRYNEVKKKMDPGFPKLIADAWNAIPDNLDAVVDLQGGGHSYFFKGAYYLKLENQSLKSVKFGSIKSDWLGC
# Procedure: as §1, with “MMP2” for “MMP9”, “1” for “0.2”
# MMP2 [4] = target: T2, MMP2; assay: Enzymolysis assay of polypeptides by MMP2 (RP-HPLC); format: biochemical; details: test polypeptide 100 µmol, activated MMP2, 37°C, 4 h
# Procedure: (§2) First, MMP2 or MMP9 enzyme solution having a final concentration of 200 µg/mL was mixed with 4 mM APMA at a ratio of 1:1, placed in a 37°C water bath and incubated for 24 h to activate the MMP2 or MMP9 enzyme solution. Subsequently, the test polypeptide having a final concentration of 100 µmol was incubated with the activated MMP2 or MMP9 enzyme solution in a 37°C water bath for 4 h. After the reaction was complete, an equal volume of acetonitrile solution was added thereto, followed by RP-HPLC analysis.
# (§3) The enzymolysis efficiency of the polypeptide was calculated based on the peak areas of the target peak before and after enzymolysis. The formula is as follows: Enzymolysis efficiency = […] [formula]
# MMP9 [5] = target: T1, MMP9; assay: Enzymolysis assay of polypeptides by MMP9 (RP-HPLC); format: biochemical; details: polypeptide 100 µmol with activated MMP9, 37°C, 4 h, RP-HPLC peak areas
# Procedure: as §2, §3
# T1 sequence (P14780 107-707 limits assumed, species assumed): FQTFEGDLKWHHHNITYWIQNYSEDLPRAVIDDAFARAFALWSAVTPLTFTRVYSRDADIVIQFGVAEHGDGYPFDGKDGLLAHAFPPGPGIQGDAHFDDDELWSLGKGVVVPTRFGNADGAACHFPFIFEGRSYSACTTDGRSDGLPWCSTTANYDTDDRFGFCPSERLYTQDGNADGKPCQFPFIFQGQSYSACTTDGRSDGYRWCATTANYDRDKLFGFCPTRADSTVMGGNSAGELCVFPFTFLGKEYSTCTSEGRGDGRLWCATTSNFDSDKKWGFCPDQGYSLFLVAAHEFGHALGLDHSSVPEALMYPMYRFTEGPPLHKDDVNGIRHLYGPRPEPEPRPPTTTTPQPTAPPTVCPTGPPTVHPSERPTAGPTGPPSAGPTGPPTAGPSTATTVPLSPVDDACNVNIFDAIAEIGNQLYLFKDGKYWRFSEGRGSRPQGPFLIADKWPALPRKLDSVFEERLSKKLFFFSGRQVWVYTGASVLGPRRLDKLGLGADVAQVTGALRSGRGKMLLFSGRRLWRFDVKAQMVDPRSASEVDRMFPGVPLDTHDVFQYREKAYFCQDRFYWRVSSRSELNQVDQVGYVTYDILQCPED
Molecule,half-life in plasma [1],MMP9 enzymolysis efficiency (%) (MMP9 [2]),MMP2 enzymolysis efficiency (%) (MMP2 [3]),Enzymolysis efficiency (%) (MMP2 [4]),Enzymolysis efficiency (%) (MMP9 [5])
Trodelvy,less than 24 hours,,,,
"CC[C@@]1(O)C(=O)OCc2c1cc1n(c2=O)Cc2c-1nc1cc(F)c(C)c3c1c2[C@@H](NC(=O)OCc1ccc(NC(=O)[C@H](CCCNC(N)=O)NC(=O)[C@@H](NC(=O)[C@H](CC(C)C)NC(=O)[C@H](CC(N)=O)NC(=O)[C@H](CCCNC(N)=O)NC(=O)[C@@H]2CCCN2C(=O)CCCCCN2C(=O)C=CC2=O)C(C)C)cc1)CC3 [Compound L064-P005, MC-PCitNLVCit-PAB-DX8951] ({Hexanoyl(6-maleimido)}-P[Cit]NLV[Cit][PABC]-Exatecan)",,52.70%,42.89%,,
CC(=O)N[C@@H](CO)C(=O)N1CCC[C@H]1C(=O)N[C@@H](CCCNC(N)=O)C(=O)N1CCC[C@H]1C(=O)N[C@@H](CC(C)C)C(=O)N[C@H](C(=O)N[C@@H](CCCNC(N)=O)C(N)=O)C(C)C [Compound 2-P24] (Ac-SP[Cit]PLV[Cit]-NH2),,,,45.97%,38.72%
Ac-GPSGLGGFG-NH2 [Compound 1-P22],,,,82.72%,37.81%
"CC[C@@]1(O)C(=O)OCc2c1cc1n(c2=O)Cc2c-1nc1cc(F)c(C)c3c1c2[C@@H](NC(=O)OCc1ccc(NC(=O)[C@H](CCCNC(N)=O)NC(=O)[C@@H](NC(=O)[C@H](CC(C)C)NC(=O)[C@H](CO)NC(=O)[C@H](C)NC(=O)[C@@H]2CCCN2C(=O)CCCCCN2C(=O)C=CC2=O)C(C)C)cc1)CC3 [Compound L065-P005, MC-PASLVCit-PAB-DX8951] ({Hexanoyl(6-maleimido)}-PASLV[Cit][PABC]-Exatecan)",,27.13%,32.73%,,
CC(=O)NCC(=O)N1CCC[C@H]1C(=O)N[C@@H](CCCNC(N)=O)C(=O)NCC(=O)N[C@@H](CC(C)C)C(=O)N[C@H](C(=O)N[C@@H](CCCNC(N)=O)C(N)=O)C(C)C [Compound 2-P10] (Ac-GP[Cit]GLV[Cit]-NH2),,,,71.24%,80.34%
CC(=O)NCC(=O)N1CCC[C@H]1C(=O)N[C@@H](CCCNC(=N)N)C(=O)N1CCC[C@H]1C(=O)N[C@@H](CC(C)C)C(=O)N[C@H](C(=O)N[C@@H](CCCNC(N)=O)C(N)=O)C(C)C [Compound 2-P8] (Ac-GPRPLV[Cit]-NH2),,,,55.07%,62.58%
Ac-GPQGLGGFG-NH2 [Compound 1-P20],,,,51.36%,32.62%
CC(=O)NCC(=O)N1CCC[C@H]1C(=O)N[C@@H](CCCNC(=N)N)C(=O)N[C@@H](CC(N)=O)C(=O)N[C@@H](CC(C)C)C(=O)N[C@H](C(=O)N[C@@H](CCCNC(N)=O)C(N)=O)C(C)C [Compound 2-P9] (Ac-GPRNLV[Cit]-NH2),,,,77.00%,100.00%
CC(=O)N[C@@H](Cc1c[nH]cn1)C(=O)N1CCC[C@H]1C(=O)N[C@@H](CCCNC(=N)N)C(=O)NCC(=O)N[C@@H](CC(C)C)C(=O)N[C@H](C(=O)N[C@@H](CCCNC(N)=O)C(N)=O)C(C)C [Compound 2-P12] (Ac-HPRGLV[Cit]-NH2),,,,77.58%,95.73%
